The source of these data is patent publication US4882432A, “Polycyclic-carbamic acid piperazinoalkyl esters and amides” (American Home Products Corporation, priority 1989, dated 1989).

The target in test [1] is T1, limbic D2 (dopamine) receptor (Rattus norvegicus, UniProt P61169).
T1 construct: from tissue
Description: inhibition of ^3 H-spiroperidol binding to limbic brain tissue (D2 receptor affinity). The following applies: 1 μM test compound, read-out: % Inhibition at 1 μM (Affinity for D2 Receptor Sites). The procedure: The compounds of this invention are antidepressant, anxiolytic agents useful in the treatment of depression and/or anxiety as a singular, primary mental problem as well as secondary, attending problems such as sexual dysfunction. […] The D2 receptor affinity of the compounds of this invention was determined by a modification of the test procedure of Fields et al., Brain Res. 136, 578 (1977) and Yamamura et al., eds., Neurotransmitter Receptor Binding, Raven Press, N.Y. (1978) as discussed in U.S. Pat. No. 4,636,563. The percentage reduction of ^3 H-spiroperidol binding at 1 μM concentration of test compound is reported, infra.

Test [2] deals with T2, 5-HT1A serotonin receptor subtype (Rattus norvegicus, UniProt P19327).
T2 construct: from tissue
T2 sequence (P19327 1-422): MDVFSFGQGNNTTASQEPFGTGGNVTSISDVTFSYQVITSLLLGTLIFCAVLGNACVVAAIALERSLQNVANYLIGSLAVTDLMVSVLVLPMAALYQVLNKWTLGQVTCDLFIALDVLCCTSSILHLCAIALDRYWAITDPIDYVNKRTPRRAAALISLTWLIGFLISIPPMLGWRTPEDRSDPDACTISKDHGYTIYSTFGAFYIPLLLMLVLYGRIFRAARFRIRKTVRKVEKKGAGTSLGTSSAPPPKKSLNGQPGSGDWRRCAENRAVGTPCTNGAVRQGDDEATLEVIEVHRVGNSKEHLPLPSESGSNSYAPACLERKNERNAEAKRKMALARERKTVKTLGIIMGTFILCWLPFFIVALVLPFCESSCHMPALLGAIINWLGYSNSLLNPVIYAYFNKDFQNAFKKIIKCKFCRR
Description: displacement of ^3 H-8-OH DPAT from the 5-HT1A serotonin receptor subtype (Hall et al.). The class given is binding. The following applies: for inhibition at 1 µM: 1 μM test compound, read-out: % Inhibition at 1 μM (Affinity for 5-HT1A Receptor Sites); for Ki: calculated from IC50 values, read-out: Ki (Affinity for 5-HT1A Receptor Sites).
Description: The serotoninergic properties of the compounds of this invention were established by the procedure of Hall et al., J. Neurochem.

The conditions of test [3]: literature; cited from earlier work.

T1 sequence (P61169 whole entry): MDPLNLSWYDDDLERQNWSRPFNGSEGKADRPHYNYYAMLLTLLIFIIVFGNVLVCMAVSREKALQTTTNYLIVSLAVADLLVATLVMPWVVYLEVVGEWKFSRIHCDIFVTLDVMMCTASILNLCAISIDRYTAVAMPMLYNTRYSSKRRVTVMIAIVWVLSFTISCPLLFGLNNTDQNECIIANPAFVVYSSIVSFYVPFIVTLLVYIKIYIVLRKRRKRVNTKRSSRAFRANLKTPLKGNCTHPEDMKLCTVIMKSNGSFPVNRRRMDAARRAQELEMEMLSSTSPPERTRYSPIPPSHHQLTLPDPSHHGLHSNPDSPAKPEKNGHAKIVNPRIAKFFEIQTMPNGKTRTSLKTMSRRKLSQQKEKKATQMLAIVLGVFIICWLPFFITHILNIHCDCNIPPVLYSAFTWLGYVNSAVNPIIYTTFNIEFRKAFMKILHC

As for `O=C(NCCCN1CCN(c2cccc(Cl)c2)CC1)NC12CC3CC(CC(C3)C1)C2` [Example 6, N-[3-[4-(3-chlorophenyl)-1-piperazinyl]propyl]-N'-tricyclo[3.3.1.1(3,7)]dec-1-ylurea], the inhibition (commonly the drop in the measured response relative to a control, in per cent) at 1 µM in test [1] came out at 38%. For the same molecule, in test [2], the inhibition at 1 µM is 95%; the Ki (usually the dissociation constant of the complex between target and ligand, obtained from inhibition or displacement) was 45 nM.

In the case of `O=C(NCCN1CCN(c2cccc(Cl)c2)CC1)NC12CC3CC(CC(C3)C1)C2` [Example 3, N-[2-[4-(3-chlorophenyl)-1-piperazinyl]ethyl]-N'-tricyclo[3.3.1.1(3,7)]dec-1-ylurea], in test [1], the inhibition at 1 µM turned out to be 56%. For the same molecule, in test [2] (100 nM test compound, read-out: % Inhibition at 100 nM (Affinity for 5-HT1A Receptor Sites)), the inhibition at 0.1 µM is 54%.

Take `O=C(NCCCN1CCN(c2ncccn2)CC1)NC12CC3CC(CC(C3)C1)C2` [Example 4, N-[3[4-(2-pyrimidyl)-1-piperazinyl]propyl]-N'-tricyclo[3.3.1.1(3,7)]dec-1-ylurea]: the inhibition at 1 µM in test [1] worked out at 10%; in test [2] it was 100%. Moreover, the inhibition constant Ki in test [2] is 7 nM.

As for `O=C(NCCN1CCN(c2ncccn2)CC1)NC12CC3CC(CC(C3)C1)C2` [Example 1, N-[2-[4-(2-pyrimidyl)-1-piperazinyl]ethyl]-N'-tricyclo[3.3.1.1(3,7)]dec-1-ylurea], the inhibition at 1 µM in test [1] turned out to be 15%; in test [2], 91%. For the same molecule, in test [2], the Ki is 52 nM.

Regarding `COc1ccccc1N1CCN(CCCNC(=O)NC23CC4CC(CC(C4)C2)C3)CC1` [Example 5, N-[3-[4-(2-methoxyphenyl)-1-piperazinyl]propyl]-N'-tricyclo[3.3.1.1(3,7)]dec-1-ylurea], the inhibition at 1 µM in test [1] worked out at 66%; in test [2], 100%.

Turning to `COc1ccccc1N1CCN(CCNC(=O)NC23CC4CC(CC(C4)C2)C3)CC1` [Example 2], in test [2], the inhibition at 1 µM turned out to be 100%.

For `Cc1nc2sccn2c(=O)c1CCN1CCC(=C(c2ccc(F)cc2)c2ccc(F)cc2)CC1` [Ritanserin], in test [3], the “clinical efficacy as anxiolytic-antidepressant agents (in words)” value is “demonstrate clinical efficacy as anxiolytic-antidepressant agents”.
